The term IC50 denotes the concentration that gives 50% inhibition.

The source of these data is US12545685B2 (Daiichi Sankyo Company, Limited, priority 2011, dated 2026).

In this assay the target is T1, Mdm2/p53 binding (GST-Mdm2 / His-p53) (Homo sapiens, UniProt Q00987, L33E).
T1 construct: Mdm2 partial protein having Mdm2 amino acids at positions 25 to 108
The experiment in a line: Mdm2/p53 binding assay (HTRF, His-p53 and GST-Mdm2). As to conditions: His-p53 (aa 1-132) and GST-Mdm2 (aa 25-108, L33E) 6.25 nM each; 25°C, 1 hour; values given as ranges. Put shortly:
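His-p53 (aa 1–132) and GST-Mdm2 (aa 25–108, L33E) were prepared at 6.25 nM each in the protein dilution (20 mM HEPES pH 7.4, 150 mM NaCl, 0.1% BSA). Compound in 10% DMSO buffer and XL665 anti-His/Eu anti-GST antibodies (KF buffer) were added, with 1 h at 25 °C. The 665/620 nm TR-FRET ratio gave T/C and a sigmoid-fitted IC50.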
(In general: TR-FRET usually uses a lanthanide donor and a delayed reading to cut background.)

Counter-ions that a name gives are not always drawn.

T1 sequence (Q00987 25-108 L33E): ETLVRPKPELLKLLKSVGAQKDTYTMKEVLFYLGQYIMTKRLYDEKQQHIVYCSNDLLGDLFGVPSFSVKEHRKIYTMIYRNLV

For the compound `CC1(C)CCC2(CC1)N[C@@H](C(=O)NC1CCN(c3nnn[nH]3)CC1)[C@H](c1ccnc(Cl)c1F)[C@]21C(=O)Nc2cc(Cl)ccc21` [Example 178, (3′R, 4′S,5′8)-6″-chloro-4′-(2-chloro-3-fluoropyridin-4-yl)-4,4-dimethyl-2″-oxo-N-[1-(1H-tetrazol-5-yl)piperidin-4-yl]-1″,2″-dihydrodispiro[cyclohexane-1,2′-pyrrolidine-3′,3″-indole]-5′-carboxamide], the half-maximal inhibitory concentration (IC50) lay within 1 to 50 nM.
The compound `CC(C)(O)[C@@H]1CC[C@@H](NC(=O)[C@@H]2NC3(CC(CF)(CF)C3)[C@@]3(C(=O)Nc4cc(Cl)ccc43)[C@H]2c2cccc(Cl)c2F)CO1` [Example 135, (3′R, 4′S,5′R)-6″-chloro-4′-(3-chloro-2-fluorophenyl)-3,3-bis(fluoromethyl)-N-[(3R,6S)-6-(1-hydroxy-1-methylethyl)tetrahydro-2H-pyran-3-yl]-2″-oxo-1″,2″-dihydrodispiro[cyclobutane-1,2′-pyrrolidine-3′,3″-indole]-5′-carboxamide] yielded a half-maximal inhibitory concentration (IC50) of 100 to 500 nM.
The figure for `O=C(N[C@@H]1CC[C@@H](CO)OC1)[C@@H]1NC2(CC(CF)(CF)C2)[C@@]2(C(=O)Nc3cc(Cl)ccc32)[C@H]1c1ccc(F)c(Cl)c1F` [Example 172, (3′R,4′S,5′R)-6″-chloro-4′-(3-chloro-2,4-difluorophenyl)-3,3-bis(fluoromethyl)-N-[(3R,6S)-6-(hydroxymethyl)tetrahydro-2H-pyran-3-yl]-2′-oxo-1″,2″-dihydrodispiro[cyclobutane-1,2′-pyrrolidine-3′,3″-indole]-5′-carboxamide] is 1 to 50 nM; for `COCCN(C)C(=O)[C@@H]1CC[C@@H](NC(=O)[C@@H]2NC3(CCC(C)(C)CC3)[C@@]3(C(=O)Nc4cc(Cl)ccc43)[C@H]2c2ccnc(Cl)c2F)CO1` [Example 127, (3′R, 4′S,5′R)-6″-chloro-4′-(2-chloro-3-fluoropyridin-4-yl)-N-{(3R,6S)-6-[(2-methoxyethyl)(methyl)carbamoyl]tetrahydro-2H-pyran-3-yl}-4,4-dimethyl-2″-oxo-1″,2″=dihydrodispiro[cyclohexane-1,2′-pyrrolidine-3′,3″-indole]-5′-carboxamide] it is 1 to 50 nM.
The value for `CC1(C)CCC2(CC1)N[C@@H](C(=O)N[C@H]1CC[C@H](O)CC1)[C@H](c1cc(N)cc(Cl)c1)[C@]21C(=O)Nc2cc(Cl)ccc21` (relative stereo) [Example 36, (3′R, 4′R, 5′R)-4′-(3-amino-5-chlorophenyl)-6″-chloro-N-(trans-4-hydroxycyclohexyl)-4,4-dimethyl-2″-oxo-1″,2″-dihydrodispiro[cyclohexane-1,2′-pyrrolidine-3′,3″-indole]-5′-carboxamide] was 1 to 50 nM; that for `CC1(C)CC2(C1)N[C@@H](C(=O)N[C@@H]1CC[C@@H](CO)OC1)[C@H](c1cccc(Cl)c1F)[C@]21C(=O)Nc2nc(Cl)ccc21` [Example 79, (3′R, 4′S,5′R)-6″-chloro-4′-(3-chloro-2-fluorophenyl)-N-[(3R,6S)-6-(hydroxymethyl)tetrahydro-2H-pyran-3-yl]-3,3-dimethyl-2″-oxo-1″,2″-dihydrodispiro[cyclobutane-1,2′-pyrrolidine-3′,3″-pyrrolo[2,3-b]pyridine]-5′-carboxamide] was 50 to 100 nM; that for `CC1(C)CCC2(CC1)N[C@@H](C(=O)N[C@@H]1CC[C@@H](C(N)=O)OC1)[C@H](c1ccnc(Cl)c1F)[C@]21C(=O)Nc2cc(Cl)ccc21` [Example 193, (3′R, 4′S, S′R)—N-[(3R,6S)-6-carbamoyltetrahydro-2H-pyran-3-yl]-6″-chloro-4′-(2-chloro-3-fluoropyridin-4-yl)-4,4-dimethyl-2″-oxo-1″,2″-dihydrodispiro[cyclohexane-1,2′-pyrrolidine-3′,3″-indole]-5′-carboxamide hydrochloride water/2-propanol (IPA) solvate] was 1 to 50 nM.
The compound `CC1(C)CCC2(CC1)N[C@@H](C(=O)N[C@@H]1CC[C@@H](CO)OC1)[C@H](c1cncc(Cl)c1)[C@]21C(=O)Nc2cc(Cl)ccc21` [Example 92, (3′R, 4′R, 5′R)-6″-chloro-4′-(5-chloropyridin-3-yl)-N-[(3R,6S)-6-(hydroxymethyl)tetrahydro-2H-pyran-3-yl]-4,4-dimethyl-2″-oxo-1″,2″-dihydrodispiro[cyclohexane-1,2′-pyrrolidine-3′,3″-indole]-5′-carboxamide] gave an IC50 of 1 to 50 nM.
In the case of `CC1(C)CCC2(CC1)N[C@@H](C(=O)N[C@H]1CC[C@H](c3nnc(CO)o3)CC1)[C@H](c1ccnc(Cl)c1F)[C@]21C(=O)Nc2cc(Cl)ccc21` [Example 130, (3′R, 4′S,5′R)-6″-chloro-4′-(2-chloro-3-fluoropyridin-4-yl)-N-{trans-4-[5-(hydroxymethyl)-1,3,4-oxadiazol-2-yl]cyclohexyl}-4,4-dimethyl-2″-oxo-1″,2″-dihydrodispiro[cyclohexane-1,2′-pyrrolidine-3′,3″-indole]-5′-carboxamide], the half-maximal inhibitory concentration (IC50) lay in the range of 1 to 50 nM.
The value for `COC[C@@H]1CC[C@@H](NC(=O)[C@@H]2NC3(CC(CF)(CF)C3)[C@@]3(C(=O)Nc4cc(Cl)ccc43)[C@H]2c2cccc(Cl)c2F)CO1` [Example 143, (3′R, 4′S,5′R)-6″-chloro-A′-(3-chloro-2-fluorophenyl)-3,3-bis(fluoromethyl)-N-[(3R,6S)-6-(methoxymethyl)tetrahydro-2H-pyran-3-yl]-2″-oxo-1″,2″-dihydrodispiro[cyclobutane-1,2′-pyrrolidine-3′,3″-indole]-5′-carboxamide] was 50 to 100 nM; that for `CC1(C)CCC2(CC1)N[C@@H](C(=O)N[C@@H]1C=C[C@@H](CO)OC1)[C@H](c1cccc(Cl)c1F)[C@]21C(=O)Nc2cc(Cl)ccc21` [Example 19, (3′R,4′S,5′R)-6″-chloro-4′-(3-chloro-2-fluorophenyl)-N-[(3R,6S)-6-(hydroxymethyl)-3,6-dihydro-2H-pyran-3-yl]-4,4-dimethyl-2″-oxo-1″,2″-dihydrodispiro[cyclohexane-1,2′-pyrrolidine-3′,3″-indole]-5′-carboxamide] was 50 to 100 nM.
The value for `CC(O)[C@@H]1CC[C@@H](NC(=O)[C@@H]2NC3(CCC(C)(C)CC3)[C@@]3(C(=O)Nc4nc(Cl)ccc43)[C@H]2c2ccnc(Cl)c2F)CO1` (single isomer, unassigned) [Example 75] was 1 to 50 nM.
The compound `C[C@@H](O)[C@@H]1CC[C@@H](NC(=O)[C@@H]2NC3(CC(CF)(CF)C3)[C@@]3(C(=O)Nc4cc(Cl)ccc43)[C@H]2c2ccnc(Cl)c2F)CO1` [Example 170, (3′R, 4′S,5′R)-6″-chloro-4′-(2-chloro-3-furopyridinyl-4-yl)-3,3-bis(fluoromethyl)-N-{(3R,6S)-6-[(1R)-1-hydroxyethyl]tetrahydro-2H-pyran-3-yl}-2″-oxo-1″,2″-dihydrodispiro[cyclobutane-1,2′-pyrrolidine-3′,3′-indole]-5′-carboxamide] displayed an IC50 of 50 to 100 nM.
The figure for `O=C(N[C@H]1CC[C@H](c2nnco2)CC1)[C@@H]1NC2(CC(CF)(CF)C2)[C@@]2(C(=O)Nc3cc(Cl)ccc32)[C@H]1c1cccc(Cl)c1F` [Example 123, (3′R, 4″S,5′R)-6′-chloro-4′-(3-chloro-2-fluorophenyl)-3,3-bis(fluoromethyl)-N-[trans-4-(1,3,4-oxadiazol-2-yl)cyclohexyl]-2″-oxo-1″,2″-dihydrodispiro[cyclobutane-1,2′-pyrrolidine-3′,3″-indole]-5′-carboxamide] is 50 to 100 nM.
The value for `CC1(C)CCC2(CC1)N[C@@H](C(=O)N[C@@H]1CC[C@@H](C(=O)N3CCC3)OC1)[C@H](c1ccnc(Cl)c1F)[C@]21C(=O)Nc2cc(Cl)ccc21` [Example 106, (3′R, 4+S,5′R)—N-[(3R,6S)-6-(azetidin-1-ylcarbonyl)tetrahydro-2H-pyran-3-yl]-6″-chloro-4′-(2-chloro-3-fluoropyridin-4-yl)-4,4-dimethyl-2″-oxo-1″,2″-dihydrodispiro[cyclohexane-1,2′-pyrrolidine-3′,3″-indole]-5H-carboxamide] was 1 to 50 nM.
The figure for `COC[C@@H]1CC[C@@H](NC(=O)[C@@H]2NC3(CCC(C)(C)CC3)[C@@]3(C(=O)Nc4cc(Cl)ccc43)[C@H]2c2ccnc(Cl)c2F)CO1` [Example 133, (3′R, 4′S,5′R)-6″-chloro-4′-(2-chloro-3-fluoropyridin-4-yl)-N-[(3R,6S)-6-(methoxymethyl)tetrahydro-2H-pyran-3-yl]-4,4-dimethyl-2″-oxo-1″,2″-dihydrodispiro[cyclohexane-1,2′-pyrrolidine-3′,3″-indole]-5′-carboxamide] is 50 to 100 nM.
Take `CC(O)[C@@H]1CC[C@@H](NC(=O)[C@@H]2NC3(CC(CF)(CF)C3)[C@@]3(C(=O)Nc4cc(Cl)ccc43)[C@H]2c2cccc(Cl)c2F)CO1` (single isomer, unassigned) [Example 147]: the IC50 is 50 to 100 nM.
The figure for `COCc1nnc([C@H]2CC[C@H](NC(=O)[C@@H]3NC4(CCC(C)(C)CC4)[C@@]4(C(=O)Nc5cc(Cl)ccc54)[C@H]3c3ccnc(Cl)c3F)CC2)o1` [Example 159] is 50 to 100 nM; for `CO[C@H]1C[C@@H](NC(=O)[C@@H]2NC3(CCC(C)(C)CC3)[C@@]3(C(=O)Nc4cc(Cl)ccc43)[C@H]2c2ccnc(Cl)c2F)CO[C@@H]1CO` [Example 45, (3′R, 4′S,5′R)-6″-chloro-4′-(2-chloro-3-fluoropyridin-4-yl)-N-[(3R,5S,6R)-6-(hydroxymethyl)-5-methoxytetrahydro-2H-pyran-3-yl]-4,4-dimethyl-2″-oxo-1″,2″-dihydrodispiro[cyclohexane-1,2′-pyrrolidine-3′,3″-indole]-5′-carboxamide] it is 50 to 100 nM.
